Data published in patent US20250179000A1 (Sanford Burnham Prebys Medical Discovery Institute, priority 2021, published 2025).

How the values were obtained:
Type in all cases: cell-based
[1] = target: Human mGlu2 (Homo sapiens, UniProt Q14416); experiment: mGlu receptor in vitro assay, human mGlu2
[2] = target: T1, Rat mGlu2 (Rattus norvegicus, UniProt P31421); experiment: mGlu receptor in vitro assay, thallium flux through GIRK channels, rat mGlu2; details: PAM potency with EC20 glutamate
T1 construct: expressed in transfected cells; host or cells: HEK-293 co-expressing GIRK channels
Method in brief: (§1)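 HEK-293 cells co-expressing rat mGlu2 or mGlu3 and GIRK, dye-loaded with FluoZin2-AM, compound added about 2.5 min before thallium buffer with EC20 glutamate; potency from the 5-15 s fluorescence slope, 10-point 4-parameter fit. Calcium assay at mGlu3 used TREx293 mGlu3 Gα15 cells induced with tetracycline 20 ng/mL for 20 h.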

[3] = target: T2, Rat mGlu3 (Rattus norvegicus, UniProt P31422); experiment: mGlu receptor in vitro assay (thallium flux through GIRK channels / calcium assay), rat mGlu3; details: PAM potency with EC20 glutamate
T2 construct: expressed in transfected cells; host or cells: HEK-293 co-expressing GIRK channels
Method in brief: as §1

[4] = target: Human mGlu3 (Homo sapiens, UniProt Q14832); experiment: mGlu receptor in vitro assay, human mGlu3
Sequence of Human mGlu3 (Q14832 23-879): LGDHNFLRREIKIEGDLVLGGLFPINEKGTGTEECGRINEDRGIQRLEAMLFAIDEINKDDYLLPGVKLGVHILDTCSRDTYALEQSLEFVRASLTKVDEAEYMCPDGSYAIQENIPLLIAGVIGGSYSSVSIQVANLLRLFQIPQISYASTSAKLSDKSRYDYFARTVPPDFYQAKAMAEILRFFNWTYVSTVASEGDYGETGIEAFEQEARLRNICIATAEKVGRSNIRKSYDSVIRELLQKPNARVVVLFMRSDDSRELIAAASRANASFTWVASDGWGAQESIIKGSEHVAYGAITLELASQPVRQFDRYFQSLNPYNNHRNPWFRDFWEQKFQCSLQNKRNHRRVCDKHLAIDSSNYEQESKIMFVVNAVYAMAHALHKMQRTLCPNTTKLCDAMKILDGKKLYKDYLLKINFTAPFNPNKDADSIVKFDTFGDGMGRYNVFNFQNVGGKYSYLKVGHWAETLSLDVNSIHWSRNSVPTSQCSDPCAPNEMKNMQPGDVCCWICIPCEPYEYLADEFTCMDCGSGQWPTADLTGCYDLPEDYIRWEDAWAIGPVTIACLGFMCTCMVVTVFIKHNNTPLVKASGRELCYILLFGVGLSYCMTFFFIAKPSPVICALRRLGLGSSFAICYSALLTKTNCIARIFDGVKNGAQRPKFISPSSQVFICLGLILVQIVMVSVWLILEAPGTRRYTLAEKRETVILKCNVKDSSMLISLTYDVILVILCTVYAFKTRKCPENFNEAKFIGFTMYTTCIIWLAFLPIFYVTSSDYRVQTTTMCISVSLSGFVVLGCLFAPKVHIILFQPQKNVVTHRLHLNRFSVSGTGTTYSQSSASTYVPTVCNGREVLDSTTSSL

T1 sequence (P31421 19-872): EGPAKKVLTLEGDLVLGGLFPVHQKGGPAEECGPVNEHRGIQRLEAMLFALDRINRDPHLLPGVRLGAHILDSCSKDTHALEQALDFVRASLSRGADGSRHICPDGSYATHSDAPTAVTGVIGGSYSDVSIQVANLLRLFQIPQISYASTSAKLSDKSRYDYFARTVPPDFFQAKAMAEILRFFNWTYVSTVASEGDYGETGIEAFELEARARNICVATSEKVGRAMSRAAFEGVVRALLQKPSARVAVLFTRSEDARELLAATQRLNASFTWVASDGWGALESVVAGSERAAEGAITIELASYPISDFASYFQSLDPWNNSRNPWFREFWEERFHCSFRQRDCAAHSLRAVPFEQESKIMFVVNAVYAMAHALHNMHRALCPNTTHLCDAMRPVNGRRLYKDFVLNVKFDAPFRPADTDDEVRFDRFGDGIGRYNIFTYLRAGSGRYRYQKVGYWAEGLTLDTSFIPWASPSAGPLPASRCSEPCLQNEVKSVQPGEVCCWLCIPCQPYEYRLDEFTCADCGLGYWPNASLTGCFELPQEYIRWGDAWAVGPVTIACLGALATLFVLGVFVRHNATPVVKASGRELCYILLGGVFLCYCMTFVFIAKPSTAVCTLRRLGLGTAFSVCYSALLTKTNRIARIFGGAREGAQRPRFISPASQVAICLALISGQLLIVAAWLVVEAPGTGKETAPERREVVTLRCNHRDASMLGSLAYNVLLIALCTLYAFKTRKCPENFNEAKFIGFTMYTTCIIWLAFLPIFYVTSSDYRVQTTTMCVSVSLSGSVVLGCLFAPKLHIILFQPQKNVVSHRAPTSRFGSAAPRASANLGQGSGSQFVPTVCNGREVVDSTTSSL
Sequence of Human mGlu2 (Q14416 19-872): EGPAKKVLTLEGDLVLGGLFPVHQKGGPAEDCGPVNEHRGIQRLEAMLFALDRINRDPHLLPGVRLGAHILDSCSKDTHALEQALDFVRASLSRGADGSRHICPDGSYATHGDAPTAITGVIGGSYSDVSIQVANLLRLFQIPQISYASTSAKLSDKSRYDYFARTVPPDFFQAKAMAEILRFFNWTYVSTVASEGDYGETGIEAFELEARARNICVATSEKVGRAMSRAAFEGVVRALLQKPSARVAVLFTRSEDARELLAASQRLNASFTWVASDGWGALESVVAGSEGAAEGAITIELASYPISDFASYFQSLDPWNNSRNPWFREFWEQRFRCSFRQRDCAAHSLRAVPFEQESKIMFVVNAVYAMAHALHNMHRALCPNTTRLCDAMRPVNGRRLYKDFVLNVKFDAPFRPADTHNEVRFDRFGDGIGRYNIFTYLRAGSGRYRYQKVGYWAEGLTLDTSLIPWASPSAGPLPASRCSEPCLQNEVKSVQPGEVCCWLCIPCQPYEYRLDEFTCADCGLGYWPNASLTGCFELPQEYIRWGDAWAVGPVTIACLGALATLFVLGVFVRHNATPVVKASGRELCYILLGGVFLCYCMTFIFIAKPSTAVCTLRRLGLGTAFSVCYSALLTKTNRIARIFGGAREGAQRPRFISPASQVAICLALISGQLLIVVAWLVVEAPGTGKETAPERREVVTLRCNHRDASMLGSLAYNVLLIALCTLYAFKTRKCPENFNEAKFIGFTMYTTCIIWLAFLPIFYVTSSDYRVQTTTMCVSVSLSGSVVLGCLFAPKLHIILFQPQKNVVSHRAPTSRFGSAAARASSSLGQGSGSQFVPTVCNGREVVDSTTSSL
T2 sequence (P31422 23-879): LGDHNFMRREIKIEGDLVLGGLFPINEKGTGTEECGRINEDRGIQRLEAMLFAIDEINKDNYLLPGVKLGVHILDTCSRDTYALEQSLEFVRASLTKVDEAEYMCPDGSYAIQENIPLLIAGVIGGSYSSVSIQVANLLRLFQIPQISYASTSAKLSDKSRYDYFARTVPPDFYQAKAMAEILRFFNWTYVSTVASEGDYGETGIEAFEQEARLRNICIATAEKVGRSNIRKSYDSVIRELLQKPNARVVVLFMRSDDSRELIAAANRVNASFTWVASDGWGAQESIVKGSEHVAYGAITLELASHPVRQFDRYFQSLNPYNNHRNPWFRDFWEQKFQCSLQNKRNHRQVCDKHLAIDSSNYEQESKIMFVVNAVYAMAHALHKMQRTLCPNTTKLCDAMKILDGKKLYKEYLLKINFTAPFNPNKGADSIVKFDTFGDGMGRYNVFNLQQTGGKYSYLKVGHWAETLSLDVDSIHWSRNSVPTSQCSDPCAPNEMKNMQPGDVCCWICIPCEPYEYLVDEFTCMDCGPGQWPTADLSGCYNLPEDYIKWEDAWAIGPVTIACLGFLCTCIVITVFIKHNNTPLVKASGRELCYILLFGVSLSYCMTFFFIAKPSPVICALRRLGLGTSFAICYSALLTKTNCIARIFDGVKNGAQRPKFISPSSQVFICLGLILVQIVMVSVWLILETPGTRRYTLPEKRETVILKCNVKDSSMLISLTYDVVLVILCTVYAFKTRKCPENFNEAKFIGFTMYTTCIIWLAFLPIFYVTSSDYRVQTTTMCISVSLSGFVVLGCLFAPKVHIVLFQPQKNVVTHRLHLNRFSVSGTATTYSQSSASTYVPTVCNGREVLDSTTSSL

| EC50 [1] [µM] | EC50 [2] [µM] | EC50 [3] [µM] | EC50 [4] [µM] | Structure (SMILES) |
| --- | --- | --- | --- | --- |
| 0.008 | 0.015 | 1 | 0.886 | CCCC(=O)c1ccc(OCCOCCOc2ccc(C(=O)O)c(Cl)c2)c(C)c1O [Example 41, 4-{2-[2-(4-Butanoyl-3-hydroxy-2-methylphenoxy)ethoxy]ethoxy}-2-chlorobenzoic acid] |
| 0.028 | 0.027 | 0.552 | 0.371 | CCCC(=O)c1ccc(OCCSCCOc2ccc(C(=O)O)c(Cl)c2)c(C)c1O [Example 42] |
| 0.02 | 0.044 | 1.03 | 1.13 | CCCC(=O)c1ccc(OC/C=C/COc2ccc(C(=O)O)c(Cl)c2)c(C)c1O [Example 44, 4-[(2E)-4-(4-Butanoyl-3-hydroxy-2-methylphenoxy)but-2-enyloxy]-2-chlorobenzoic acid] |
| 0.013 | 0.066 | 1.09 | 0.943 | CCCC(=O)c1ccc(OCCCCCOc2ccc(C(=O)O)c(F)c2)c(C)c1O [Example 45, 4-[5-(4-Butanoyl-3-hydroxy-2-methylphenoxy)pentyloxy]-2-fluorobenzoic acid] |
| 0.012 | 0.039 | 0.427 | 0.414 | Cc1c(OCCCCCOc2ccc(C(=O)O)c(Cl)c2)ccc(C(=O)CC(C)C)c1O [Example 46, 2-Chloro-4-{5-[3-hydroxy-2-methyl-4-(3-methylbutanoyl)phenoxy]pentyloxy}benzoic acid] |
| 0.021 | 0.043 | > 10 | > 10 | CCCC(=O)c1ccc(OCCCCCOc2ccc(C(=O)O)cc2Cl)c(C)c1O [Example 50, 4-[5-(4-Butanoyl-3-hydroxy-2-methylphenoxy)pentyloxy]-3-chlorobenzoic acid] |
| 0.025 | 0.036 | > 30 | > 30 | CCCC(=O)c1ccc(OCCCCCOc2ccc(Cl)c(C(=O)O)c2)c(C)c1O [Example 52, 5-[5-(4-Butanoyl-3-hydroxy-2-methylphenoxy)pentyloxy]-2-chlorobenzoic acid] |
| 0.006 | 0.019 | 0.92 | 0.708 | [2H]C([2H])(CCCC([2H])([2H])Oc1ccc(C(=O)CCC)c(O)c1C)Oc1ccc(C(=O)O)c(Cl)c1 [Example 53, 4-((5-(4-Butyryl-3-hydroxy-2-methylphenoxy)pentyl-1,1,5,5-d4)oxy)-2-chlorobenzoic acid] |
| 0.006 | 0.008 | 0.577 | 0.3 | CCCC(=O)c1ccc(OCCCCCOc2ccc(C(=O)O)c(Cl)c2)c(C)c1O [Example 54, 4-[5-(4-Butanoyl-3-hydroxy-2-methylphenoxy)pentyloxy]-2-chlorobenzoic acid] |

The remaining lines, values behind:

| Structure (SMILES) | EC50 [1] [µM] | EC50 [2] [µM] | EC50 [3] [µM] | EC50 [4] [µM] |
| --- | --- | --- | --- | --- |
| CCCC(=O)c1ccc(OCC2(COc3cccc(C(=O)O)c3C)CC2)c(C)c1O [Example 36, 3-({[(4-Butanoyl-3-hydroxy-2-methylphenoxy)methyl]cyclopropyl}methoxy)-2-methylbenzoic acid] | 0.014 | 0.089 | > 30 | > 30 |
| [2H]C([2H])(CCCC([2H])([2H])Oc1ccc(C(=O)CCC)c(O)c1C)Oc1ccc(C(=O)O)cc1OC [Example 51, 4-((5-(4-Butyryl-3-hydroxy-2-methylphenoxy)pentyl-1,1,5,5-d4)oxy)-3-methoxybenzoic acid] | 0.009 | 0.022 | 2.38 | > 30 |
| COc1cc(F)c(C(=O)O)cc1-c1cccc(COc2ccc(C(=O)CC(C)(C)C)c(O)c2C)c1 [Example 164, 3′-((4-(3,3-dimethylbutanoyl)-3-hydroxy-2-methylphenoxy)methyl)-4-fluoro-6-methoxy-[1,1′-biphenyl]-3-carboxylic acid] | 0.039 | 0.11 | 0.559 | 0.242 |
| COc1ccc(C(=O)O)cc1OCCCCOc1ccc(C(=O)c2ccccc2)c(O)c1C [compound 59, 3-(4-(4-Benzoyl-3-hydroxy-2-methylphenoxy)butoxy)-4-methoxybenzoic acid] | 0.325 | 0.182 | 0.222 | 0.408 |
| COc1ccc(C(=O)O)cc1OCCCCOc1ccc(C(=O)C2CC2)c(O)c1C [compound 60, 3-(4-(4-(Cyclopropanecarbonyl)-3-hydroxy-2-methylphenoxy)butoxy)-4-methoxybenzoic acid] | 0.06 | 0.117 | > 10 | 0.598 |
| COc1ccc(C(=O)O)cc1OCCCCOc1ccc(C(=O)c2ccc(F)cc2)c(O)c1C [compound 65, 3-(4-(4-(4-Fluorobenzoyl)-3-hydroxy-2-methylphenoxy)butoxy)-4-methoxybenzoic acid] | 0.143 | 1.15 | 3.03 | 0.342 |
| COc1ccc(C(=O)O)cc1-c1cncc(COc2ccc(C(=O)C3CC3)c(O)c2C)n1 [compound 69, 3-(6-((4-(Cyclopropanecarbonyl)-3-hydroxy-2-methylphenoxy)methyl)pyrazin-2-yl)-4-methoxybenzoic acid] | 0.033 | 0.049 | 0.028 | 0.023 |
| Cc1c(OCCCCSc2cccc(C(=O)O)c2)ccc(C(=O)CC(C)C)c1O [compound 81, 3-((4-(3-Hydroxy-2-methyl-4-(3-methylbutanoyl)phenoxy)butyl)thio)benzoic acid] | 0.163 | 0.326 | 1.49 | 0.966 |
| COc1ccc(C(=O)O)cc1OCCCCSc1ccc(C(=O)CC(C)(C)C)c(O)c1C [compound 84, 3-{4-[4-(3,3-Dimethylbutanoyl)-3-hydroxy-2-methylphenylthio]butoxy}-4-methoxybenzoic acid] | 0.126 | 0.382 | 0.953 | 0.34 |
| Cc1c(OCOc2ccc(C(=O)CC(C)(C)C)c(O)c2C)cccc1C(=O)O [compound 94, 3-{[4-(3,3-Dimethylbutanoyl)-3-hydroxy-2-methylphenoxy]methoxy}-2-methylbenzoic acid] | 0.1 | 0.441 | > 30 | > 10 |
| Cc1c(OCCCCOc2ccc(C(=O)O)c(F)c2)ccc(C(=O)CC(C)C)c1O [compound 100, 2-Fluoro-4-{4-[3-hydroxy-2-methyl-4-(3-methylbutanoyl)phenoxy]butoxy}benzoic acid] | 0.015 | 0.079 | 0.732 | 0.773 |
| CCCC(=O)c1ccc(OCCCCOc2ccc(C(=O)O)c(Cl)c2)c(C)c1O [compound 101, 4-[4-(4-Butanoyl-3-hydroxy-2-methylphenoxy)butoxy]-2-chlorobenzoic acid] | 0.016 | 0.033 | > 30 | > 30 |
| COc1c(C(=O)O)cccc1-c1cccc(COc2ccc(C(=O)CC(C)(C)C)c(O)c2C)c1 [compound 102, 3-(3-{[4-(3,3-Dimethylbutanoyl)-3-hydroxy-2-methylphenoxy]methyl}phenyl)-2-methoxybenzoic acid] | 0.054 | 0.093 | 0.493 | 0.159 |
| CCCC(=O)c1ccc(OCc2cnc(-c3cccc(C(=O)O)c3OC)cn2)c(C)c1O [compound 103, 3-{5-[(4-Butanoyl-3-hydroxy-2-methylphenoxy)methyl]pyrazin-2-yl}-2-methoxybenzoic acid] | 0.054 | 0.198 | 0.481 | 0.375 |
